Results on 9 compounds are retold here after ChEMBL document CHEMBL4725298, “Exploration of piperazine-derived thioureas as antibacterial and anti-inflammatory agents. In vitro evaluation against clinical isolates of colistin-resistant Acinetobacter baumannii” (Bioorg Med Chem Lett, 2020).

Values after ≈ are worked out from the molar mass of the structure shown. Active and inactive are the calls of the source. Where only a bound is given, the exact number is not on record here.

The test system of one data set is Acinetobacter baumannii. Nature of the data set: Antibacterial activity against colistin-resistant Acinetobacter baumannii 24 assessed as reduction in bacterial growth incubated for 24 hrs by standard broth microdilution method. The format is functional.
Settings: not given
Usually MIC stands for the smallest concentration in the dilution series that meets the test's criterion for growth inhibition. With `CC1CN(C(=O)CC2CCCCC2)CCN1C(=S)Nc1ccc(C(F)(F)F)cc1` (configuration not stated), the MIC is 3.12 µM (≈ 1.33 µg/mL).
Turning to `CC1CN(C(=O)Cc2ccccc2)CCN1C(=S)Nc1ccc(Cl)cc1` (configuration not stated), the result was inactive.
Turning to `C[C@H]1CN(C(=O)CC(C)(C)C)CCN1C(=S)Nc1cc(C(F)(F)F)cc(C(F)(F)F)c1`, the MIC stood at 12.5 µM (≈ 5.87 µg/mL).
In the case of `CC1CN(C(=O)Cc2ccccc2)CCN1C(=S)Nc1ccc(C(F)(F)F)cc1` (configuration not stated), the outcome was inactive.
On to `CC1CN(C(=O)CC2CCCCC2)CCN1C(=S)Nc1ccc(Cl)cc1` (configuration not stated), for which the MIC came out at 25 µM (≈ 9.85 µg/mL).
On the same count and under the same terms, the figure for `O=C(CC1CCCCC1)N1CCN(C(=S)Nc2cc(C(F)(F)F)cc(C(F)(F)F)c2)C(c2ccccc2)C1` (configuration not stated) is 3.12 µM (≈ 1.74 µg/mL).

The next data set has as its system Acinetobacter baumannii. Put plainly: Antibacterial activity against colistin-resistant Acinetobacter baumannii 14 assessed as reduction in bacterial growth incubated for 24 hrs by standard broth microdilution method. The format is functional.
Settings: not given
For `CC1CN(C(=O)OC(C)(C)C)CCN1C(=S)Nc1cc(C(F)(F)F)cc(C(F)(F)F)c1` (configuration not stated), the minimal inhibitory concentration (MIC) stood at 3.12 µM (≈ 1.47 µg/mL).
The same measure, in the same setting: next, `CC1CN(C(=O)CC2CCCCC2)CCN1C(=S)Nc1ccc(C(F)(F)F)cc1` (configuration not stated): 12.5 µM (≈ 5.34 µg/mL); `CC(C)(C)OC(=O)N1CCN(C(=S)Nc2cc(C(F)(F)F)cc(C(F)(F)F)c2)C(c2ccccc2)C1` (configuration not stated): 12.5 µM (≈ 6.67 µg/mL).
As to `CC1CN(C(=O)Cc2ccccc2)CCN1C(=S)Nc1ccc(Cl)cc1` (configuration not stated), the outcome was inactive.
On to `CC1CN(C(=O)Cc2ccccc2)CCN1C(=S)Nc1ccc(C(F)(F)F)cc1` (configuration not stated), for which the result was inactive.
As for `CC1CN(C(=O)CC2CCCCC2)CCN1C(=S)Nc1ccc(Cl)cc1` (configuration not stated), the MIC amounted to 50 µM (≈ 19.7 µg/mL).

A further data set concerns RAW264.7. Nature of the data set: Antiinflammatory activity against mouse RAW264.7 cells assessed as reduction in LPS-induced NO production at 1 to 10 uM incubated for 24 hrs by Griess assay relative to control. The format is functional. Particulars: dose microM 1-10. In general terms: Nitrite, measured by Griess reagent, commonly stands in for NO production.
With `CC1CN(C(=O)OC(C)(C)C)CCN1C(=S)Nc1cc(C(F)(F)F)cc(C(F)(F)F)c1` (configuration not stated), the “inhibition (INH)” value worked out at 40%.
With `CC(C)(C)OC(=O)N1CCN(C(=S)Nc2cc(C(F)(F)F)cc(C(F)(F)F)c2)C(c2ccccc2)C1` (configuration not stated), the “inhibition (INH)” value is given as “>=80%”.
The same measure, in the same setting: the entry for `O=C(CC1CCCCC1)N1CCN(C(=S)Nc2cc(C(F)(F)F)cc(C(F)(F)F)c2)C(c2ccccc2)C1` (configuration not stated) is “>=80%”.

The test system of a further data set is Acinetobacter baumannii. Nature of the data set: Antibacterial activity against colistin-resistant Acinetobacter baumannii 17 assessed as reduction in bacterial growth incubated for 24 hrs by standard broth microdilution method. Type of data set: functional.
Settings: not given
For orientation: Dilution methods test growth across graded concentrations, often in twofold steps.
With `O=C(Cc1ccccc1)N1CCN(C(=S)Nc2cc(C(F)(F)F)cc(C(F)(F)F)c2)C(c2ccccc2)C1` (configuration not stated), the MIC was determined as 3.12 µM (≈ 1.72 µg/mL).
The same measure, in the same setting: the figure for `CC(C)(C)OC(=O)N1CCN(C(=S)Nc2cc(C(F)(F)F)cc(C(F)(F)F)c2)C(c2ccccc2)C1` (configuration not stated) is 6.25 µM (≈ 3.33 µg/mL).
On to `CC1CN(C(=O)Cc2ccccc2)CCN1C(=S)Nc1ccc(Cl)cc1` (configuration not stated), for which the outcome was inactive.
Same read-out and setting: next, `CC1CN(C(=O)Cc2ccccc2)CCN1C(=S)Nc1ccc(C(F)(F)F)cc1` (configuration not stated): “inactive”.

The next data set relates to RAW264.7. Put plainly: Cytotoxicity against mouse RAW264.7 cells assessed as reduction in cell viability at 1 to 10 uM incubated for 24 hrs. As to conditions: raw264.7, 24 h, dose 1-10 µM. Type of data set: cell-based.
With `CC(C)(C)OC(=O)N1CCN(C(=S)Nc2cc(C(F)(F)F)cc(C(F)(F)F)c2)C(c2ccccc2)C1` (configuration not stated), the Activity entry is “Toxic”.
Take `O=C(CC1CCCCC1)N1CCN(C(=S)Nc2cc(C(F)(F)F)cc(C(F)(F)F)c2)C(c2ccccc2)C1` (configuration not stated): the Activity result was “Toxic”.

For another data set, the system named is Acinetobacter baumannii. Nature of the data set: Antibacterial activity against colistin-resistant Acinetobacter baumannii 22P assessed as reduction in bacterial growth incubated for 24 hrs by standard broth microdilution method. The format is functional.
Settings: not given
In the case of `CC1CN(C(=O)CC2CCCCC2)CCN1C(=S)Nc1ccc(C(F)(F)F)cc1` (configuration not stated), the MIC was found to be 6.25 µM (≈ 2.67 µg/mL).
Consider `CC1CN(C(=O)Cc2ccccc2)CCN1C(=S)Nc1ccc(Cl)cc1` (configuration not stated), for which the outcome was inactive.
As to `C[C@H]1CN(C(=O)CC(C)(C)C)CCN1C(=S)Nc1cc(C(F)(F)F)cc(C(F)(F)F)c1`, the MIC was found to be 6.25 µM (≈ 2.93 µg/mL).
Consider `CC1CN(C(=O)Cc2ccccc2)CCN1C(=S)Nc1ccc(C(F)(F)F)cc1` (configuration not stated), for which the result was inactive.
Turning to `CC1CN(C(=O)CC2CCCCC2)CCN1C(=S)Nc1ccc(Cl)cc1` (configuration not stated), the minimal inhibitory concentration (MIC) came out at 12.5 µM (≈ 4.92 µg/mL).
On the same count and under the same terms, the figure for `O=C(CC1CCCCC1)N1CCN(C(=S)Nc2cc(C(F)(F)F)cc(C(F)(F)F)c2)C(c2ccccc2)C1` (configuration not stated) is 6.25 µM (≈ 3.49 µg/mL).

The test system of a further data set is Acinetobacter baumannii. Put plainly: Antibacterial activity against colistin-resistant Acinetobacter baumannii 21R assessed as reduction in bacterial growth incubated for 24 hrs by standard broth microdilution method. Type of data set: functional.
Settings: not given
Consider `CC1CN(C(=O)CC2CCCCC2)CCN1C(=S)Nc1ccc(C(F)(F)F)cc1` (configuration not stated), for which the MIC turned out to be 25 µM (≈ 10.7 µg/mL).
On to `CC1CN(C(=O)Cc2ccccc2)CCN1C(=S)Nc1ccc(Cl)cc1` (configuration not stated), for which the result was inactive.
Regarding `C[C@H]1CN(C(=O)CC(C)(C)C)CCN1C(=S)Nc1cc(C(F)(F)F)cc(C(F)(F)F)c1`, the MIC came to 6.25 µM (≈ 2.93 µg/mL).
For the compound `CC1CN(C(=O)Cc2ccccc2)CCN1C(=S)Nc1ccc(C(F)(F)F)cc1` (configuration not stated), the outcome was inactive.
On to `CC1CN(C(=O)CC2CCCCC2)CCN1C(=S)Nc1ccc(Cl)cc1` (configuration not stated), for which the MIC was 12.5 µM (≈ 4.92 µg/mL).
On the same count and under the same terms, next, `O=C(CC1CCCCC1)N1CCN(C(=S)Nc2cc(C(F)(F)F)cc(C(F)(F)F)c2)C(c2ccccc2)C1` (configuration not stated): 3.12 µM (≈ 1.74 µg/mL).

Another data set deals with RAW264.7. Put plainly: Antiinflammatory activity against mouse RAW264.7 cells assessed as reduction in LPS-induced NO production at 50 uM incubated for 24 hrs by Griess assay. The format is functional, cell-based.
Settings: not given
Regarding `O=C(Cc1ccccc1)N1CCN(C(=S)Nc2cc(C(F)(F)F)cc(C(F)(F)F)c2)C(c2ccccc2)C1` (configuration not stated), the inhibition result was “Active”.
Same read-out and setting: the entry for `CC1CN(C(=O)OC(C)(C)C)CCN1C(=S)Nc1cc(C(F)(F)F)cc(C(F)(F)F)c1` (configuration not stated) is “Active”; for `CC(C)(C)OC(=O)N1CCN(C(=S)Nc2cc(C(F)(F)F)cc(C(F)(F)F)c2)C(c2ccccc2)C1` (configuration not stated) it is “Active”; for `CC1CN(C(=O)Cc2ccccc2)CCN1C(=S)Nc1ccc(Cl)cc1` (configuration not stated) it is “Active”.
The same measure, in the same setting: the entry for `CC1CN(C(=O)Cc2ccccc2)CCN1C(=S)Nc1ccc(C(F)(F)F)cc1` (configuration not stated) is “Active”.
Still for that read-out and setting: the entry for `O=C(CC1CCCCC1)N1CCN(C(=S)Nc2cc(C(F)(F)F)cc(C(F)(F)F)c2)C(c2ccccc2)C1` (configuration not stated) is “Active”.

Tested on in the next data set: not listed separately
Nature of the data set: Cytotoxicity against human A549 cells. The format is cell-based.
Settings: not given
A word on the CC50: it is the concentration giving 50% cytotoxicity. The low end stands for greater toxicity to the cells, the high end for lower toxicity to the cells. `CC1CN(C(=O)OC(C)(C)C)CCN1C(=S)Nc1cc(C(F)(F)F)cc(C(F)(F)F)c1` (configuration not stated) gave a cytotoxic concentration (CC50) of 112 µM.
Same read-out and setting: the figure for `CC(C)(C)OC(=O)N1CCN(C(=S)Nc2cc(C(F)(F)F)cc(C(F)(F)F)c2)C(c2ccccc2)C1` (configuration not stated) is 127 µM; for `C[C@H]1CN(C(=O)CC(C)(C)C)CCN1C(=S)Nc1cc(C(F)(F)F)cc(C(F)(F)F)c1` it is 73.5 µM.
`CC1CN(C(=O)CC2CCCCC2)CCN1C(=S)Nc1ccc(Cl)cc1` (configuration not stated) displayed a CC50 of 200 µM.
In turn, `O=C(CC1CCCCC1)N1CCN(C(=S)Nc2cc(C(F)(F)F)cc(C(F)(F)F)c2)C(c2ccccc2)C1` (configuration not stated) registered a CC50 of 125 µM.

A further data set concerns Acinetobacter baumannii. Put plainly: Antibacterial activity against colistin-resistant Acinetobacter baumannii 11 assessed as reduction in bacterial growth incubated for 24 hrs by standard broth microdilution method. The format is functional.
Settings: not given
For the compound `CC1CN(C(=O)Cc2ccccc2)CCN1C(=S)Nc1ccc(Cl)cc1` (configuration not stated), the result was inactive.
Same read-out and setting: the entry for `CC1CN(C(=O)Cc2ccccc2)CCN1C(=S)Nc1ccc(C(F)(F)F)cc1` (configuration not stated) is “inactive”.
As for `O=C(CC1CCCCC1)N1CCN(C(=S)Nc2cc(C(F)(F)F)cc(C(F)(F)F)c2)C(c2ccccc2)C1` (configuration not stated), the MIC was determined as 3.12 µM (≈ 1.74 µg/mL).
